Legend:
COX2 [1] = molecular target: T1, COX2 (Homo sapiens, UniProt P35354); assay: Biolayer interferometry (BLI) binding to His-tagged COX2 on Ni-NTA sensors; settings: for Kd: BLI, one-to-one binding model, 4–6 point concentration series, read-out: KD (equilibrium dissociation constant); for COX2 binding in BLI: initial assay at 100 μM, binders re-assayed in concentration series
T1 construct: purchased Sino Biological Co. (Beijing, China)
T1 sequence (P35354 18-604): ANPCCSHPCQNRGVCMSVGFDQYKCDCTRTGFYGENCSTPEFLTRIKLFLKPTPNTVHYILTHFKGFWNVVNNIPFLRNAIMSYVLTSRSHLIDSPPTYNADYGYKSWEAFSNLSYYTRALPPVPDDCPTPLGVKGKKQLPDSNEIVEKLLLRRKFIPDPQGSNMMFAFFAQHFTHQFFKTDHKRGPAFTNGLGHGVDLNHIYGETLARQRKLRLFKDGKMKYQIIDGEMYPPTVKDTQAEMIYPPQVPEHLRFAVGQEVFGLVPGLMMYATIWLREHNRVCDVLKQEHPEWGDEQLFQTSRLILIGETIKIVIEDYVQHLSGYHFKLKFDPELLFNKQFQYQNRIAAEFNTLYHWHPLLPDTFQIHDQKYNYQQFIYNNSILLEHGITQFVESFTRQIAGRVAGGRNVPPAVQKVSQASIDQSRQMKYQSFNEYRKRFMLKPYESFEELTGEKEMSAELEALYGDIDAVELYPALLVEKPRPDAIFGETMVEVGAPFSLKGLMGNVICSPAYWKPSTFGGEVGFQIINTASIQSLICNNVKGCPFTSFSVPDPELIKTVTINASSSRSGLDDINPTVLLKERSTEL
From the text: The label-free real-time binding assay, BLI, was firstly performed to evaluate the potential COX2 binding activities of the twelve novel compounds. COX2 protein was captured onto the Ni-NTA sensors, by the virtue of its His-tag, followed by exposure to small-molecule compound. The binding of small-molecule compound to the biosensor increased the layer thickness of the sensor, resulting in an interference wavelength shift recorded by BLI. All 12 compounds were initially assayed at a single concentration of 100 μM (Figure 2a).
A significant shift in the association curve was observed upon addition of different concentrations of compounds DB2, SC2 and YB2 to COX2 in a concentration dependent manner (Figure 2b–d). During the dissociation step, it was also observed that the signal decreased to the baseline. That was a sign of a total protein-ligand dissociation, thus indicating the interaction was reversible. The real-time binding curves were generated fitting to a one-to-one binding model. The ratio of koff (dissociation) and kon (association) constants was equilibrium dissociation constants (KD).
His-tagged COX2 solution (40 μg∙mL^−1), which was prepared in phosphate buffer saline (PBS), was immobilized on Ni-NTA biosensor tips for 600 s. To remove drift and well-to-well artifacts, we performed double reference subtraction with FortéBio data analysis software. All the twelve compounds stock solutions (10 mM) were prepared in dimethyl sulfoxide (DMSO). The stock solutions were diluted with PBS containing 0.1% […] (PBST) to 100 μM for the initial assay. Typically, for re-assay, the stock solutions were serially diluted (4–6 point serial dilutions) in PBST. Compound testing was performed sequentially taking baseline, association and dissociation steps. Each of these steps took 60 s. The alignment of data was carried out using baseline signal and curves fitted with a one to one best-fit model in FortéBio’s data analysis software.

COX2 [2] = molecular target: T1, COX2; assay: Fluorescence resonance energy transfer between COX2 and compound; format: binding; settings: for J (effective spectral overlap): COX2 emission vs compound absorption, each 5.0 × 10^−8 mol∙L^−1; for r (separation distance between COX2 and compound): κ^2 = 2/3, N = 1.336, φ = 0.15
From the text: The transfer of energy from the protein donor to the ligand acceptor is generally seen in strong protein–ligand complexes. In addition to divulging the binding activities, assessments of the energy transfer efficiency can reveal the distance between the ligand and the ligand binding site on the protein [47]. According to Förster theory, the efficiency depends not only on the orientation and distance of the molecules but also on the extent of overlap between the donor emission and acceptor absorption. The distance between the donor and acceptor must be in the 2 to 8 nm range [47, 48]. The overlaps of fluorescence emission spectrum of COX2 with absorption spectrum of compounds DB2, SC2 or YB2 are presented in Figure 5g–i, respectively. The energy transfer efficiency (E) from donor to acceptor was calculated by a widely used method:(6) E=R06/R06+r^6=F0−F/F0 (7) R06=8.79×10^−25κ^2N^−4φJ (8) J=∑^ F(λ)ε(λ)λ^4Δλ/∑^F(λ)Δλ
Here, r is the separation distance between the donor (COX2) and acceptor (DB2, SC2 or YB2). R0 is the Förster critical distance when E = 50%. κ^2 is the orientation space factor. N is the refractive index of medium surrounding the fluorophores. φ is the fluorescence quantum yield of the donor. J is overlap integral of the donor fluorescence emission spectrum and acceptor absorption spectrum. F(λ) is the fluorescence intensity of the protein at the wavelength λ, ε(λ) is the molar absorption coefficient of acceptor at λ. Using the values of κ^2 = 2/3, N = 1.336 and φ = 0.15 [49], J and r were calculated (Table 2).
The fluorescence intensity of the system was measured with a 1.0 cm quartz cell. COX2 protein was dissolved in PBS for a final concentration of 6.0 × 10^−8 mol∙L^−1. DB2, SC2 or YB2 stock solutions were prepared in singleton at 1.5 × 10^−3 mol∙L^−1 in PBS containing 0.1% DMSO. 2.0 mL COX2 solution was separately titrated by continuing additions of 10 μL compounds DB2, SC2 or YB2 solution). After incubation at 298 K or 310 K, fluorescence quenching spectra were recorded in the region 325-450 nm at a scan rate of 1200 nm∙min^−1. The local environment of Tyr and Trp residues was quite sensitive at 280 nm, so the excitation wavelength was set at this wavelength. Typically, 280 nm is also used to measure the changes in protein tertiary structure. The slit widths of emission and excitation were both fixed at 10 nm. To observe spectra behaviors of Tyr and Trp groups of COX2, the wavelength interval between the excitation and emission wavelengths (Δλ) was set as 15 nm and 60 nm, respectively. Three-dimensional fluorescence spectroscopy was obtained for an excitation range of 200–300 nm and an emission range of 325–400 nm. Appropriate buffer solutions, determined under the same operation conditions, were used as blanks. Each spectrum was recorded three times.

Row | SMILES | Kd (COX2 [1]) | COX2 binding in BLI (COX2 [1]) | J (effective spectral overlap) (COX2 [2]) | r (separation distance between COX2 and compound) (COX2 [2])
1 | CCCCc1ccc(C(=O)c2c(Br)cc(O)c(O)c2O)cc1 [DB2] | 394 µM | interacted with the protein | 1.64 ×10^−13 cm^3∙L∙mol^−1 | 6.42 nm
2 | CC(C)(C)c1ccc(C(=O)c2c(Cl)cc(O)c(O)c2O)cc1 [SC2] | 627 µM | interacted with the protein | 1.55 ×10^−13 cm^3∙L∙mol^−1 | 6.62 nm
3 | CC(C)Cc1ccc(C(=O)c2c(Br)cc(O)c(O)c2O)cc1 [YB2] | 766 µM | interacted with the protein | 1.72 ×10^−13 cm^3∙L∙mol^−1 | 6.47 nm

Source: PMC8587043, “An Investigation into the Interaction between Double Hydroxide-Based Antioxidant Benzophenone Derivatives and Cyclooxygenase 2” (Molecules, 2021)
